# Biological target: Aldo-keto reductase family 1 member B1 (Homo sapiens, UniProt P15121)
# Test: Binding affinity for human Aldose reductase 2 expressed in Escherichia coli
row,IC50,SMILES
1,40 µM,NC(=O)[C@H]1C[C@@]2(NC(=O)NC2=O)c2cc(F)ccc2O1 (mixture of isomers)
2,0.57 µM,"NC(=O)[C@H]1C[C@]2(NC(=O)NC2=O)c2cc(F)ccc2O1 [(R,S)-FIDARESTAT]"
3,11 µM,"NC(=O)[C@@H]1C[C@@]2(NC(=O)NC2=O)c2cc(F)ccc2O1 [(S,R)-FIDARESTAT]"
4,0.03 µM,NC(=O)[C@@H]1C[C@]2(NC(=O)NC2=O)c2cc(F)ccc2O1 [FIDARESTAT]
